In the NIST ThermoML archive (doi:10.1021/je800653d):
± gives the expanded uncertainty stated by the source.

Experiments:
[1] = 101 kPa, Liquid; for speed of sound: Linear variable-path acoustic interferometer; for viscosity: Capillary tube (Ostwald / Ubbelohde) method
[2] = xn = mol fraction of the nth substance listed; details: 101 kPa, Liquid, x2 = 0; for speed of sound: Linear variable-path acoustic interferometer; for viscosity: Capillary tube (Ostwald / Ubbelohde) method

CCOC(C)=O [ethyl acetate]
[1]
Details	mass density [kg/m3]	speed of sound [m/s]	viscosity [mPa·s]
298.15 K	895.1 ± 0.8	1142 ± 5	–
303.15 K	889.4 ± 0.8	1122 ± 5	0.3806 ± 0.0041
308.15 K	883.9 ± 0.8	1101 ± 5	0.3622 ± 0.004
313.15 K	875.8 ± 0.8	1082 ± 5	0.3426 ± 0.0038

CCCCOC(C)=O [butyl ethanoate]
[1]
Details	mass density [kg/m3]	speed of sound [m/s]	viscosity [mPa·s]
298.15 K	875.6 ± 0.7	1203 ± 5	–
303.15 K	871.6 ± 0.8	1176 ± 5	0.6072 ± 0.0061
308.15 K	867.1 ± 0.8	1155 ± 5	0.5687 ± 0.0057
313.15 K	862 ± 0.8	1135 ± 5	0.534 ± 0.0054

CCCOC(C)=O [propyl ethanoate] + O=S1(=O)CCCC1
[2]
Details	mass density [kg/m3]	speed of sound [m/s]	viscosity [mPa·s]
298.15 K	883.7 ± 0.7	1156 ± 5	–
303.15 K	877.7 ± 0.8	1149 ± 5	0.4878 ± 0.0054
308.15 K	873.1 ± 0.8	1139 ± 5	0.4595 ± 0.0048
313.15 K	866.7 ± 0.8	1126 ± 5	0.4329 ± 0.0046

CCCCOC(C)=O [butyl ethanoate] + O=S1(=O)CCCC1
[2]
Details	mass density [kg/m3]	speed of sound [m/s]	viscosity [mPa·s]
298.15 K	875.6 ± 0.7	1203 ± 5	–
303.15 K	871.6 ± 0.8	1176 ± 5	0.6072 ± 0.0061
308.15 K	867.1 ± 0.8	1155 ± 5	0.5687 ± 0.0057
313.15 K	862 ± 0.8	1135 ± 5	0.534 ± 0.0054

CCOC(C)=O [ethyl acetate] + O=S1(=O)CCCC1
[2]
Details	mass density [kg/m3]	speed of sound [m/s]	viscosity [mPa·s]
298.15 K	895.1 ± 0.8	1142 ± 5	–
303.15 K	889.4 ± 0.8	1122 ± 5	0.3806 ± 0.0041
308.15 K	883.9 ± 0.8	1101 ± 5	0.3622 ± 0.004
313.15 K	875.8 ± 0.8	1082 ± 5	0.3426 ± 0.0038

CCCOC(C)=O [propyl ethanoate]
[1]
Details	mass density [kg/m3]	speed of sound [m/s]	viscosity [mPa·s]
298.15 K	883.7 ± 0.7	1156 ± 5	–
303.15 K	877.7 ± 0.8	1149 ± 5	0.4878 ± 0.0054
308.15 K	873.1 ± 0.8	1139 ± 5	0.4595 ± 0.0048
313.15 K	866.7 ± 0.8	1126 ± 5	0.4329 ± 0.0046

O=S1(=O)CCCC1 [sulfolane]
[1]
Details	mass density [kg/m3]	speed of sound [m/s]	viscosity [mPa·s]
298.15 K	1263.9 ± 1.3	1601 ± 7	–
303.15 K	1261.8 ± 1.3	1588 ± 7	10.03 ± 0.079
308.15 K	1257 ± 1.3	1576 ± 7	8.795 ± 0.07
313.15 K	1251.6 ± 1.3	1558 ± 7	7.837 ± 0.063
